Results on one compound are retold here after patent US8507756B2, “Plant protection” (Plant Bioscience Limited, priority 2007, dated 2013).

The assay concerns Myzus persicae. In words: JA or MeJA seed treatment, tomato plants challenged with aphids. The note with it: tomato cv. Carousel; seed treatment 3.0 mM MeJA; challenged 10 weeks after seed treatment; 12 days feeding. Format: in vivo. The method, then: Tomato, pepper, maize and wheat seeds were treated with 3 mM JA or 1.5 mM JA solutions or with 3 mM methyl jasmonate (MeJA) or with deionised water containing 42.8 mM ethanol (control) by full submersion of up to 40 seeds in a Petri dish of solution wrapped in foil for a period of 24 hours at 4° C. in a fridge. A temperature of 4° C. was used both to prevent degradation of the jasmonic acid solutions and to prevent germination of the seeds. The seeds were then removed from the treatment solution and washed in 1 liter of deionised water for 5 minutes to remove the JA or MeJA coating the outside of the seeds. Tomato seeds were sown in rockwool blocks and grown on peat-based compost in glass houses at 12° C.-28° C. under artificial light on a 16 hour light and 8 hour dark cycle for 48, 56 or 70 days. Tomato plants were then challenged with Tetranychus urticae (two-spotted spider mite) which were allowed to feed for 9 days, Manduca sexta (tobacco hornworm) caterpillars which were allowed to feed for 4 days or Myzus persicae (aphid), which were allowed to feed for 10 or 12 days. In each case these organisms were restricted to the plant on which they had originally been placed. Pepper plants were challenged with Myzus persicae (aphid), which were allowed to feed for 2 weeks. Maize and wheat plants were challenged with Spodoptera […] caterpillars which were allowed to feed for 2 days (maize) or 3 days (wheat). The effect of Myzus persicae on plants was determined by counting the aphid population on each plant under a dissecting microscope at ×10 magnification. Seeds of a UK commercial F1 hybrid tomato variety (cv. Carousel) were treated with 3.0 mM jasmonic acid (JA) and 42.8 mM ethanol in deionised H2O for a period of 24 hours at 4° C. in the dark. […] Aphids were allowed to feed on the plants for twelve days and the aphid population was measured at intervals over this period. […]

On to `CC/C=C\CC1C(=O)CCC1CC(=O)OC` (stereo not shown) [MeJA, jasmonic acid methyl ester], for which the “Aphid population compared with control plants” value is listed as “significant (p<0.05) reduction”.
